These results are taken from patent publication US9499502B2, “5-substituted iminothiazines and their mono- and dioxides as BACE inhibitors, compositions, and their use” (Merck Sharp & Dohme Corp., priority 2011, dated 2016).

soluble human BACE1 catalytic domain, sequence (P56817 75-416): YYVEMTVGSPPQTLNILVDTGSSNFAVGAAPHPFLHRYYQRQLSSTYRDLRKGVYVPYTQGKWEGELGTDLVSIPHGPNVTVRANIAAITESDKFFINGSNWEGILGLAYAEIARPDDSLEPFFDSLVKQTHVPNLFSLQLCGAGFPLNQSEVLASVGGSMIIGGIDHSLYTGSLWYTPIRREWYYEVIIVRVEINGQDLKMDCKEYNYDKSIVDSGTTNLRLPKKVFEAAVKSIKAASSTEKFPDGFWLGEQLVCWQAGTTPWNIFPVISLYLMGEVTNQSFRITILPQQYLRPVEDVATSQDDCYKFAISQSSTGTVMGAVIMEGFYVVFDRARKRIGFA

The first experiment addresses soluble human BACE1 catalytic domain (Homo sapiens (Human), UniProt P56817). The experiment in a line: BACE1 HTRF FRET Assay. Particulars: read-out: BACE1 % Inh. at 10 μM, at 10 μM. (Time-resolved FRET reads energy transfer from a long-lived donor to a nearby acceptor.)
On to `CN(C)CC(=O)Nc1cc(F)c(F)c([C@]2(C)CS(=O)(=O)C(C)(C)C(=N)N2)c1` [Example 9bw], for which the inhibition at 10 µM was found to be 48%.

The same experiment, now with this note: read-out: BACE1 Ki.
The Ki is a measure of affinity in units of concentration, obtained from inhibition or displacement. Turning to `COc1cncc(-c2cc(F)c([C@]3(C)CS(=O)(=O)C(C)(C)C(=N)N3)s2)n1` [Example 27au], the Ki is 0.943 µM.

With `C[C@]1(CC2CCOCC2)C(=N)N[C@](C)(c2sc(-c3cncc(C#N)c3)cc2Cl)CS1(=O)=O` [Example 27bw], the inhibition constant (Ki) was 0.163 µM.

As to `CC1(C)C(=N)N[C@](C)(c2sc(-c3ccc(F)c(C#N)c3)cc2Cl)CS1(=O)=O` [Example 27j], the inhibition constant Ki is 5.15 µM.

With `C[C@@]1(c2ccccn2)C(=N)N[C@](C)(c2sc(-c3cncc(C#N)c3)cc2F)CS1(=O)=O` [Example 27bq-b], the inhibition constant (Ki) amounted to 2.5 µM.

On to `C[C@@]1(c2sc(-c3cccc(-c4nnco4)c3)cc2F)CS(=O)(=O)[C@@](C)(c2ccccn2)C(=N)N1` [Example 27bp-a], for which the inhibition constant (Ki) was found to be 0.0178 µM.

Take `C[C@@]1(c2sc(-c3nnc(-c4ccc(Cl)cc4)o3)cc2F)CS(=O)(=O)[C@](C)(CC(F)(F)F)C(=N)N1` [Example 27by-b]: the Ki turned out to be 0.45 µM.

Take `C[C@@]1(c2sc(-c3cccc(C#N)c3)cc2F)CS(=O)(=O)[C@](C)(CC(F)(F)F)C(=N)N1` [Example 27bj-b]: the inhibition constant (Ki) is 0.829 µM.

Consider `CC1(C)C(=N)N[C@](C)(c2nc3ccc(-c4ccc(F)cc4)cc3s2)CS1(=O)=O` [Example 29b], for which the inhibitory constant (Ki) amounted to 2.33 µM.

With `CC1(C)C(=N)N[C@](C)(c2sc(-c3csc4ccccc34)cc2Cl)CS1(=O)=O` [Example 27g], the inhibitory constant (Ki) is 2.03 µM.

For the compound `C[C@@]1(c2ccc(F)cc2F)CS(=O)(=O)[C@@](C)(c2cccc(OCc3ccccc3)c2)C(=N)N1` [Example 34a], the Ki came to 2.17 µM.

For the compound `COc1cncc(-c2cc(Cl)c([C@]3(C)CS(=O)(=O)C(C)(C)C(=N)N3)s2)n1` [Example 27w], the Ki was found to be 1.29 µM.

The same experiment, now with this note: read-out: BACE1 Ki; Ki calculated from IC50 using the Cheng-Prusoff equation.
Turning to `C[C@@]1(c2cc(NC(=O)c3ccc(Cl)cn3)ccc2F)CS(=O)(=O)[C@@](C)(c2ccccn2)C(=N)N1` [Example 9cw-a], the inhibitory constant (Ki) is 0.0044 µM.

As to `COc1cnc(C(=O)Nc2cc(F)c(F)c([C@]3(C)CS(=O)(=O)C(C)(C)C(=N)N3)c2)c(F)c1` [Example 9o], the Ki is 0.003 µM.

For the compound `C[C@@]1(c2cc(NC(=O)c3ccc(C(F)(F)F)cn3)ccc2F)CS(=O)(=O)[C@@](C)(C2CCC2)C(=N)N1` [Example 9dz-a], the Ki is 0.0034 µM.

As to `C[C@@]1(c2cc(NC(=O)c3ccc(F)cn3)ccc2F)CS(=O)(=O)[C@@](C)(c2ccccn2)C(=N)N1` [Example 9cv-a], the Ki is 0.0078 µM.

Take `C[C@@]1(c2cc(NC(=O)c3ccc(F)cn3)ccc2F)CS(=O)(=O)[C@@](C)(c2cc(C(F)(F)F)ccn2)C(=N)N1` [Example 9ed-b]: the inhibitory constant (Ki) is 0.0151 µM.

Consider `CC[C@]1(C)C(=N)N[C@](C)(c2cc(NC(=O)c3ccc(F)cn3)ccc2F)CS1(=O)=O` [Example 9cl-b], for which the Ki is 0.0225 µM.

Regarding `CC1(C)C(=N)N[C@](C)(c2sc(-c3nnc(-c4ccccc4)o3)cc2Cl)CS1(=O)=O` [Example 27ba], the inhibition constant (Ki) is 0.258 µM.

In the case of `C[C@]1(CC2CC2)C(=N)N[C@](C)(c2cc(NC(=O)c3ccc(Cl)cn3)ccc2F)CS1(=O)=O` [Example 9di-a], the Ki is 0.0043 µM.

As for `CC1(C)C(=N)N[C@](C)(c2sc(-c3cccc(-c4cnco4)c3)cc2Cl)CS1(=O)=O` [Example 27c], the Ki was 0.0128 µM.

On to `Cc1noc(CC(=O)Nc2cc(F)c(F)c([C@]3(C)CS(=O)(=O)C(C)(C)C(=N)N3)c2)n1` [Example 9bq], for which the inhibition constant (Ki) is 4.96 µM.

Still in this experiment, the particulars now being: read-out: BACE1 inhibition, Ki.
For `CC1(C)C(=N)N[C@](C)(c2cc(Br)cs2)CS1(=O)=O` [Example 6C-1], the inhibitory constant (Ki) is 4.7 µM.

`C[C@@]1(c2cc(N)ccc2F)CS(=O)(=O)[C@@](C)(c2cccc(C(F)(F)F)c2)C(=N)N1` [Entry 68]: the Ki is 1.4 µM.

Take `C[C@@]1(c2cc(F)ccc2F)CS(=O)(=O)[C@@](C)(c2cccc(OCc3ccccc3)c2)C(=N)N1` [Example 34d-a]: the Ki was determined as 2.9 µM.

As for `CC1(C)C(=N)N[C@](C)(c2c(F)ccc(F)c2F)CS1(=O)=O` [Entry 14], the Ki amounted to 2.4 µM.
